Tests used:
[1] = test system: mouse Smad7 mRNA; test: Murine Smad7 mRNA expression after oral administration in BALB/c mice (Example 11); assay type: in vivo; conditions: 500 mg/kg/day oral for 3 weeks, 24 hours after last dose
Experimental: The objective of this study was to evaluate the efficacy of Ionis SMAD7 antisense oligonucleotides in BALB/c mice following daily oral administration. The Ionis oligonucleotides are cross-reactive with mouse Smad7 mRNA.
Groups of BALB/c mice were orally administered 500 mg/kg/day for 3 weeks of human Smad7 oligonucleotides, ION 790615, ION 798781, or ION 830025, or mouse Smad7 oligonucleotide, ION 772797 (a 3-10-3 cEt gapmer with phosphorothioate backbone and sequence […]; designated herein as SEQ ID NO: 2743). One group of mice was orally administered PBS daily for 3 weeks. Each group contained 4 mice.
To evaluate the efficacy of the oligonucleotides, murine Smad7 mRNA expression in the liver, kidneys, duodenum, ileum, and colon was measured using primer probe set RTS1114.

[2] = test system: human SMAD7 mRNA; test: Dose-dependent inhibition of human SMAD7 mRNA expression in Hep3B cells, comparison with ION 28453 (Example 4); assay type: cell-based; conditions: electroporation, approximately 16 hours
Experimental: Cells were plated at a density of 20,000 cells per well and transfected using electroporation with 0.25 μM, 0.74 μM, 2.22 μM, 6.67 μM, or 20.00 μM concentrations of antisense oligonucleotide, as specified in the Tables below. After a treatment period of approximately 16 hours, RNA was isolated from the cells and SMAD7 mRNA levels were measured by quantitative real-time PCR. Primer probe set RTS5062 was used to measure human SMAD7 mRNA levels. SMAD7 mRNA levels were adjusted according to total RNA content, as measured by RIBOGREEN®. Results are presented as percent inhibition of SMAD7 mRNa expression, relative to untreated control cells.
The half maximal inhibitory concentration (IC50) of each oligonucleotide is also presented. […] Several newly designed antisense oligonucleotides had greater potency than the previously disclosed lead compound, ION 28453.

Substance | Mouse Smad7 mRNA expression (% inhibition), Colon [1] [% inhibition] | Mouse Smad7 mRNA expression (% inhibition), Duodenum [1] [% inhibition] | Mouse Smad7 mRNA expression (% inhibition), Ileum [1] [% inhibition] | Mouse Smad7 mRNA expression (% inhibition), Kidney [1] [% inhibition] | Mouse Smad7 mRNA expression (% inhibition), Liver [1] [% inhibition] | % inhibition of SMAD7 mRNA expression ([2]; 0.25 μM) [%] | % inhibition of SMAD7 mRNA expression ([2]; 0.74 μM) [%] | % inhibition of SMAD7 mRNA expression ([2]; 2.22 μM) [%] | % inhibition of SMAD7 mRNA expression ([2]; 6.67 μM) [%] | % inhibition of SMAD7 mRNA expression ([2]; 20.00 μM) [%] | IC50 ([2]; SMAD7 mRNA) [µM]
790615 (CCAATGAGAATGCTTC; 3-10-3 cEt gapmer, further chemistry not given here) [compound 790615] | 72 | 54 | 0 | 41 | 52 |  |  |  |  |  | 
798781 (CGTAAGATTCACAGCA; 3-10-3 cEt gapmer, further chemistry not given here) [compound 798781] | 0 | 47 | 0 | 12 | 0 | 12 | 38 | 66 | 66 | 87 | 2
830025 (antisense TTTGTAAATCGAAAGC; 3-10-3 cEt gapmer, further chemistry not given here) [compound 830025] | 39 | 51 | 0 | 31 | 25 |  |  |  |  |  | 

— patent US10517889B2, “Modulators of SMAD7 expression” (Ionis Pharmaceuticals, Inc., priority 2017, dated 2019)
